The record followed here is patent US6608086B2, “Dihydropyridines and new uses thereof” (Synaptic Pharmaceutical Corporation, priority 1993, dated 2003).

Counter-ions that a name gives are not always drawn.

In general, melting point refers to the temperature of the solid-liquid transition.

In the first data set the target is T1, L-type calcium channel (Rattus norvegicus, UniProt P22002).
T1 construct: membrane fragments of rat cardiac muscle; from tissue; host or cells: rat cardiac muscle membranes
T1 sequence (P22002 whole entry, other chains not shown, the tested form may be a part): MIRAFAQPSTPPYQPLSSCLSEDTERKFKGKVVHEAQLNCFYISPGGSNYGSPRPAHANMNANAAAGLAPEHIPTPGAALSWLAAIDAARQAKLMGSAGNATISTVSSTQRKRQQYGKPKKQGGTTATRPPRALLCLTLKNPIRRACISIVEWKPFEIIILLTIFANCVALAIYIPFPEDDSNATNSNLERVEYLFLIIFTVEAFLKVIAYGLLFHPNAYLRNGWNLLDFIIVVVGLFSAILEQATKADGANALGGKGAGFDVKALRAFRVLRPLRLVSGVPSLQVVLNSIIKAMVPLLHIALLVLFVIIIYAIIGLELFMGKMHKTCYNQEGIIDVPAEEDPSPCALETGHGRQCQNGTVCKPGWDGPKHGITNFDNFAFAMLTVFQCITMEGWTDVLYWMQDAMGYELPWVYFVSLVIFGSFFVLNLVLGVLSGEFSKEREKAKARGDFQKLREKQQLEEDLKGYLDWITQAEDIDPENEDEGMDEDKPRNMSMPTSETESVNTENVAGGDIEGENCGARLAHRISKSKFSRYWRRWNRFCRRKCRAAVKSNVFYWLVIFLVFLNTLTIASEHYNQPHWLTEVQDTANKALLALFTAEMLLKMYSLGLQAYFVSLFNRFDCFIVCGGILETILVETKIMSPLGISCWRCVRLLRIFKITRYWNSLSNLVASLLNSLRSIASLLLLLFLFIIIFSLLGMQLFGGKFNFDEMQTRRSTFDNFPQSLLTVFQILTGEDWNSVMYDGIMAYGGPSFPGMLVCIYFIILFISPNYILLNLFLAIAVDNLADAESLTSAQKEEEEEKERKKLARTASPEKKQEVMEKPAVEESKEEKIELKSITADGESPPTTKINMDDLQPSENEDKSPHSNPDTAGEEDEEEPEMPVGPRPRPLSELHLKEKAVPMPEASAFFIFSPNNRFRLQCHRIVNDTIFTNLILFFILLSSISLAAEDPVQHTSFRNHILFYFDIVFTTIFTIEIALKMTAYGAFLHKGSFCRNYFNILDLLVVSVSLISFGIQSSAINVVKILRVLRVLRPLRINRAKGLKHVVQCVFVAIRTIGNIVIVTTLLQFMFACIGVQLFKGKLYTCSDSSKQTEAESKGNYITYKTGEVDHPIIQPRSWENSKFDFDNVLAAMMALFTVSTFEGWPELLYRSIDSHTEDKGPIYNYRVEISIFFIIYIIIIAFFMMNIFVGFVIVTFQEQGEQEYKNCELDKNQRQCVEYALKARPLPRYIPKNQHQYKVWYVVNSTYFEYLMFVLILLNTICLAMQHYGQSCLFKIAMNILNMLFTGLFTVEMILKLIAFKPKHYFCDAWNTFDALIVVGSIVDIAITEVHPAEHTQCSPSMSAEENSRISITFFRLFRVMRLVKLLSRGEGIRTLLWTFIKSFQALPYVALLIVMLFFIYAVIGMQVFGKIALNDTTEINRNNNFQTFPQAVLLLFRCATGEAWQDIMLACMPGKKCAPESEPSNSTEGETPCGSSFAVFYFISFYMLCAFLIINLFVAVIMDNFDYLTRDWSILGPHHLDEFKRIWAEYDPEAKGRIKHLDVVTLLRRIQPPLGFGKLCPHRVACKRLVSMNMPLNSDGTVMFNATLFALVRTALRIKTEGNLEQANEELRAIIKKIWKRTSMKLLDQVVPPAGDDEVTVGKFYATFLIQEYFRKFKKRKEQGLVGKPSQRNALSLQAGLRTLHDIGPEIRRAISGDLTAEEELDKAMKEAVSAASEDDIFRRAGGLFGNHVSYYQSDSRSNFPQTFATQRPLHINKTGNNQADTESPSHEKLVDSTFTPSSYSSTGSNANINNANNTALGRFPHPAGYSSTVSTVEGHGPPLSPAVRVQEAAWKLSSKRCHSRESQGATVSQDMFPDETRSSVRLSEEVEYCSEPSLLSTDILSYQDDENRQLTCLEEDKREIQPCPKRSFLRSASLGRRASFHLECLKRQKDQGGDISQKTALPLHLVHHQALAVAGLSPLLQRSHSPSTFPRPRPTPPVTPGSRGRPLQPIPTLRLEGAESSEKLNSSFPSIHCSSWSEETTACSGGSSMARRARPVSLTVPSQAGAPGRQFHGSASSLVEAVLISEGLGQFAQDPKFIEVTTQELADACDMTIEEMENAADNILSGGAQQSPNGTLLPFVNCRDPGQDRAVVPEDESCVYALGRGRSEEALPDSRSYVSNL
T1 sequence (P54290 25-944 partner limits assumed, other chains not shown): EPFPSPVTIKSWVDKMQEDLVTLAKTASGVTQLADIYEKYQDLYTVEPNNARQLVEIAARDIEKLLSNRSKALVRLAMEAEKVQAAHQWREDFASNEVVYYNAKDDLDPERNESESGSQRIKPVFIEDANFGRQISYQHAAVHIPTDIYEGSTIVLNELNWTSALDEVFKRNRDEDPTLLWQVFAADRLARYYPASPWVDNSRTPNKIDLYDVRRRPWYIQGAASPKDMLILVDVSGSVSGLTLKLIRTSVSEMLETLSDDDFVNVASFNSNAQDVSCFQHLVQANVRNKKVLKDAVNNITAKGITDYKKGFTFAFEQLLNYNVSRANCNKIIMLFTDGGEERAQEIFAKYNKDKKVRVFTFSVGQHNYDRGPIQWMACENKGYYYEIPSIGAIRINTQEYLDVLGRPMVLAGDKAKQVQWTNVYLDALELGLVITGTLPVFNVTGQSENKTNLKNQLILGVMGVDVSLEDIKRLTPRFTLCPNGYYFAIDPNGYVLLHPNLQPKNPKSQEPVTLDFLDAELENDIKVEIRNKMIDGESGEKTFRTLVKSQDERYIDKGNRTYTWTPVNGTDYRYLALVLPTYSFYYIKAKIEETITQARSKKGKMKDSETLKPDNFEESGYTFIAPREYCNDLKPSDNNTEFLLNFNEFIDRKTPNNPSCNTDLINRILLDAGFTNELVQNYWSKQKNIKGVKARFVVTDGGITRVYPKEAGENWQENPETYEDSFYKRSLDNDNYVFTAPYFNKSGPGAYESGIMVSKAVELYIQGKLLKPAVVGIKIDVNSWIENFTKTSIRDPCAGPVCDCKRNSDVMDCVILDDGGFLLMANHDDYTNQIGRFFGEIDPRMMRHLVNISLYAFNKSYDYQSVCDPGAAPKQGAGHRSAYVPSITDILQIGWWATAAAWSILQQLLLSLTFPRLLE
T1 sequence (P54290 945-1091 partner limits assumed, other chains not shown): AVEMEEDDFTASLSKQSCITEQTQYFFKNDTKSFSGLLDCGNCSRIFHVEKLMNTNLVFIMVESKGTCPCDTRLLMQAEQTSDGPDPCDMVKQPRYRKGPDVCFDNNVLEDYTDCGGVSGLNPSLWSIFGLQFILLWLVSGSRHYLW
Kind of data set: Competition binding of [3H]nitrendipine to membrane fragments of rat cardiac muscle.
Details: not given
On to “5-Acetyl-1,4-dihydro-2,6-dimethyl-4-(4-nitrophenyl)-3-[3-(4,4-diphenylpiperidin-1-yl)propoxy]carbonylpyridine hydrochloride hemihydrate [Example 49]”, for which the “pKi Ca” value amounted to 5.37.

Staying with this data set, now noted: [3H]nitrendipine, rat cardiac muscle membranes; SEM and n in lines below; read-out: pKi Ca (converted).
For the compound `COC(=O)C1=C(C)NC(C)=C(C(=O)NCCCN2CCC(c3ccccc3)CC2)C1c1ccc([N+](=O)[O-])cc1` (single isomer, unassigned; (-)) [(−)-45, 1,4-Dihydro-3-methoxycarbonyl-2,6-dimethyl-4-(4-nitrophenyl)-5-{N-[3-(4-phenylpiperidin-1-yl)propyl]}carboxamidopyridine hydrochloride hemihydrate], the Ki was 4.37 µM.

The data set is the same for the next values; noted with them: pKi Ca.
For `CNC(=O)C1=C(C)NC(C)=C(C(=O)NCCCN2CCC(c3ccccc3)(c3ccccc3)CC2)C1c1ccc([N+](=O)[O-])cc1` (racemic) [(±)-119, 1,4-Dihydro-2,6-dimethyl-5-(N-Methyl) carboxamido-4-(4-nitrophenyl)-3-{N-[3-(4,4-diphenylpiperidin-1-yl)propyl]}carboxamidopyridine], the Ki was 7.41 µM.

Test system in a further data set: not given
Assay: not given
Details: not given
As to `COC(=O)C1=C(C)NC(C)=C(C(=O)NCCCN2CCC(c3ccccc3)CC2)C1c1ccc(C)cc1` (stereo not shown) [Example 31, 1,4-Dihydro-3-methoxycarbonyl-2,6-dimethyl-4-(4-methylphenyl)-5-(N-(3-(4-phenylpiperidin-1-yl)propyl)carboxamido)pyridine], the melting point was in the range of 139 to 139.5 °C.

Consider `CNC(=O)C1=C(C)NC(C)=C(C(=O)NCCCN2CCC(c3ccccc3)(c3ccccc3)CC2)C1c1ccc2c(c1)OCCO2` (stereo not shown) [Example 163], for which the melting point fell in the range of 115 to 116 °C.

Turning to `CCC1=C(C(N)=O)C(c2ccc([N+](=O)[O-])cc2)C(C(=O)NCCCN2CCC(C(=O)OC)(c3ccccc3)CC2)=C(CCCCN=[N+]=[N-])N1` (stereo not shown) [Example 165, 2-(4-Azidobutyl)-3-{N-[3-(4-methoxycarbonyl-4-phenylpiperidin-1-yl)propyl]}carboxamido-5-carboxamido-6-ethyl-1,4-dihydro-4-(4-nitrophenyl)pyridine], the melting point is 74 to 77 °C.

In turn, `CCC1=C(C(=O)NC)C(c2ccc([N+](=O)[O-])cc2)C(C(=O)NCCCN2CCC(c3ccccc3)(c3ccccc3)CC2)=C(CCCCN)N1` (stereo not shown) [Example 172, 2-(4-Aminobutyl)-6-ethyl-1,4-dihydro-5-(N-methyl)carboxamido-4-(4-nitrophenyl)-3-{N-[3-(4,4-diphenylpiperidin-1-yl)propyl]}carboxamidopyridine] gave a melting point of 105 to 109 °C.

As to `CCC1=C(C(=O)NC)C(c2ccc([N+](=O)[O-])cc2)C(C(=O)NCCCN2CCC(c3ccccc3)(c3ccccc3)CC2)=C(CCCCOC)N1` (stereo not shown) [Example 173, 6-Ethyl-1,4-dihydro-2-(4-methoxybutyl)-5-(N-methyl)carboxamido-4-(4-nitrophenyl)-3-{N-[3-(4,4-diphenylpiperidin-1-yl)propyl]}carboxamidopyridine], the melting point lay in the range of 98 to 102 °C.

Compound `CCC1=C(C(=O)NC)C(c2ccc([N+](=O)[O-])cc2)C(C(=O)NCCCN2CCC(C(=O)OC)(c3ccccc3)CC2)=C(CCCCOC)N1` (stereo not shown) [Example 174, 6-Ethyl-1,4-dihydro-2-(4-methoxybutyl)-3-{N-[3-(4-methoxycarbonyl-4-phenylpiperidin-1-yl)propyl]}carboxamido-5-(N-methyl)carboxamido-4-(4-nitrophenyl)pyridine] showed a melting point of 71 to 74 °C.

`CC(=O)C1=C(C)NC(CCCCN)=C(C(=O)NCCCN2CCC(c3ccccc3)(c3ccccc3)CC2)C1c1ccc([N+](=O)[O-])cc1` (stereo not shown) [Example 176, 5-Acetyl-2-(4-aminobutyl)-1,4-dihydro-6-methyl-4-(4-nitrophenyl)-3-{N-[3-(4,4-diphenylpiperidin-1-yl)propyl]}carboxamidopyridine] yielded a melting point of 76 to 79 °C.

`COC(=O)C1(c2ccccc2)CCN(CCCNC(=O)C2=C(CCCCN)NC(C)=C(C(C)=O)C2c2ccc([N+](=O)[O-])cc2)CC1` (stereo not shown) [Example 178, 5-Acetyl-2-(4-aminobutyl)-1,4-dihydro-3-{N-[3-(4-methoxycarbonyl-4-phenylpiperidin-1-yl)propyl]}carboxamido-6-methyl-4-(4-nitrophenyl) pyridine] returned a melting point of 62 to 65 °C.

In the case of `CCNC(=O)C1=C(CC)NC(CC)=C(C(=O)NCCCN2CCC(C(=O)OC)(c3ccccc3)CC2)C1c1ccc([N+](=O)[O-])cc1` (stereo not shown) [Example 180, 2,6-Diethyl-1,4-dihydro-5-(N-ethyl)carboxamido-3-{N-[3-(4-methoxycarbonyl-4-phenylpiperidin-1-yl)propyl]}carboxamido-4-(4-nitrophenyl)pyridine], the melting point is 217 °C (dec.).

`CCNC(=O)C1=C(CC)NC(COCCN)=C(C(=O)NCCCN2CCC(C(=O)OCC)(c3ccccc3)CC2)C1c1ccc([N+](=O)[O-])cc1` (stereo not shown) [Example 192, 2-[(2-Aminoethoxy)methyl]-3-{N-[3-(4-ethoxycarbonyl-4-phenyl-piperidin-1-yl)propyl]}carboxamido-1,4-dihydro-6-ethyl-5-(N-ethyl)carboxamido-4-(4-nitrophenyl)pyridine] returned a melting point of 112 to 114 °C.

`CCOC(=O)C1(c2ccccc2)CCN(CCCNC(=O)C2=C(COCCN)NC(CC)=C(C(N)=O)C2c2ccc([N+](=O)[O-])cc2)CC1` (stereo not shown) [Example 193, 2-[(2-Aminoethoxy)methyl]-5-carboxamido-3-{N-[3-(4-ethoxycarbonyl-4-phenylpiperidin-1-yl)propyl]}carboxamido-1,4-dihydro-6-ethyl-4-(4-nitrophenyl)pyridine] yielded a melting point of 87 to 89 °C.

Consider `CCOC(=O)C1(c2ccccc2)CCN(CCCNC(=O)C2=C(COCCN)NC(CC)=C(C(=O)NC)C2c2ccc([N+](=O)[O-])cc2)CC1` (stereo not shown) [Example 194, 2-[(2-Aminoethoxy)methyl]-3-{N-[3-(4-ethoxycarbonyl-4-phenylpiperidin-1-yl)propyl]}carboxamido-1,4-dihydro-6-ethyl-5-(N-methyl) carboxamido-4-(4-nitrophenyl) pyridine], for which the melting point lay within 51 to 53 °C.

For the compound `CCOC(=O)C1(c2ccccc2)CCN(CCCNC(=O)C2=C(COCCN)NC(CC)=C(C(=O)O)C2c2ccc([N+](=O)[O-])cc2)CC1` (stereo not shown) [Example 196, 2-[(2-Aminoethoxy)methyl]-3-{N-[3-(4-ethoxycarbonyl-4-phenylpiperidin-1-yl)propyl]}carboxamido-1,4-dihydro-6-ethyl-4-(4-nitrophenyl)pyridine-5-carboxylic Acid], the melting point was 103 to 105 °C.

Compound `CCC1=C(C(N)=O)C(c2ccc([N+](=O)[O-])cc2)C(C(=O)NCCCN2CCC(C(=O)OC)(c3ccccc3)CC2)=C(CC)N1` (stereo not shown) [Example 200] registered a melting point of 112 to 114 °C.

Turning to `CC(=O)C1=C(C)NC(COCCN)=C(C(=O)NCCCN2CCC(c3ccccc3)(c3ccccc3)CC2)C1c1ccc2c(c1)OCO2` (stereo not shown) [Example 239, 5-Acetyl-2-((2-aminoethyl)oxy)methyl-1,4-dihydro-6-methyl-4-(3,4-methylenedioxy)phenyl-3-(N-(3-(4,4-dipheylpiperidin-1-yl)propyl))carboxamidopyridine], the melting point was 80 °C (dec.).

In turn, `CCOC(=O)C1(c2ccccc2)CCN(CCCNC(=O)C2=C(COC)NC(CC)=C(C(=O)O)C2c2ccc([N+](=O)[O-])cc2)CC1` (stereo not shown) [Example 240, 3-(N-3-(4-Ethoxycarbonyl-4-phenylpiperidin-1-yl)propyl)carboxamido-6-ethyl-1,4-dihydro-2-(methyloxy)methyl-4-(4-nitro)phenylpyridine-5-carboxylic Acid] displayed a melting point of 116 to 126 °C.

Regarding `COC(=O)C1(c2ccccc2)CCN(CCCNC(=O)C2=C(COCCCN)NC(C)=C(C(C)=O)C2c2ccc([N+](=O)[O-])cc2)CC1` (stereo not shown) [Example 241, 5-Acetyl-2-((3-aminopropyl)oxy)methyl-1,4-dihydro-3-(N-(3-(4-methoxycarbonyl-4-phenylpiperidin-1-yl)propyl))carboxamido-6-methyl-4-(4-nitro)phenylpyridine], the melting point was 70 °C (dec.).

Consider `CC(=O)C1=C(C)NC(COCCN)=C(C(=O)NCCCN2CCC(c3ccccc3)(c3ccccc3)CC2)C1c1ccc(F)cc1` (stereo not shown) [Example 242, 5-Acetyl-2-((2-aminoethyl)oxy)methyl-4-(4-fluoro)phenyl-1,4-dihydro-6-methyl-3-(N-(3-(4,4-diphenylpiperidin-1-yl)propyl))carboxamidopyridine], for which the melting point was 75 °C (dec.).

Take `CCOC(=O)C1(c2ccccc2)CCN(CCCNC(=O)C2=C(COCCN)NC(C)=C(C(C)=O)C2c2ccc3c(c2)OCO3)CC1` (stereo not shown) [Example 244, 5-Acetyl-2-((2-aminoethyl)oxy)methyl-3-(N-(3-(4-ethoxycarbonyl-4-phenylpiperidin-1-yl)propyl)) carboxamido-1,4-dihydro-6-methyl-4-(3,4-methylenedioxy) phenylpyridine]: the melting point is 55 °C (dec.).

For `CCC1=C(C(=O)OCCO)C(c2ccc([N+](=O)[O-])cc2)C(C(=O)NCCCN2CCC(c3ccccc3)(c3ccccc3)CC2)=C(COC)N1` (stereo not shown) [Example 246], the melting point was 73 °C (dec.).

With `CCC1=C(C(=O)NCCOC)C(c2ccc([N+](=O)[O-])cc2)C(C(=O)NCCCN2CCC(c3ccccc3)(c3ccccc3)CC2)=C(COC)N1` (stereo not shown) [Example 247, 6-Ethyl-1,4-dihydro-5-N-((2-methoxy)ethyl)carboxamido-2-(methyloxy)methyl-4-(4-nitro)phenyl-3-(N-(3-(4,4-diphenylpiperidin-1-yl)propyl)) carboxamidopyridine], the melting point was 70 °C (dec.).

For the compound `CCC1=C(C(=O)NN2CCOCC2)C(c2ccc([N+](=O)[O-])cc2)C(C(=O)NCCCN2CCC(c3ccccc3)(c3ccccc3)CC2)=C(COC)N1` (stereo not shown) [Example 248, 6-Ethyl-1,4-dihydro-2-((methyl)oxy)methyl-5-N-(morpholin-4yl)carboxamido-4-(4-nitro)phenyl-3-(N-(3-(4,4-diphenylpiperidin-1-yl)propyl))carboxamidopyridine], the melting point was 112 °C (dec.).
